Calls of active or inactive are those of the source.
Legend:
[1] = inhibitors of firefly luciferase expression or activity, dose response, H4 neuroglioma cells, luminescence (AID 1990); assay type: functional, cell-based
[2] = luciferase reporter signal reduction – luminescence, H4-C neuroglioblastoma cells, dose response (AID 2458); assay type: functional, cell-based;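 also: H4 neuroglioblastoma cells stably carrying a luciferase reporter gene fusion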
BJ [3] = test: cytotoxicity toward BJ-TERT fibroblasts, dose response, cell-based, RAS-independent, luminescence (AID 1933); assay type: functional; conditions: Homo sapiens
cells [4] = assay type: functional, cell-based
[5] = Luminescence Cell-Based Dose Response HTS to Identify Inhibitors of 5'UTR Stem-Loop Driven Prion Protein mRNA Translation in H4 Neuroglioblastoma Cells. [Related pubchem assays: 1827 (Project Summary), 1813 (Primary HTS)]; assay type: functional
[6] = inhibitors of SNCA 5'UTR-driven reporter translation, confirmation, H4 neuroglioma cells, luminescence (AID 1988); assay type: functional, cell-based
BJ [7] = test: cells; assay type: functional, cell-based; conditions: Homo sapiens
[8] = molecular target: Luciferin 4-monooxygenase (Photinus pyralis, UniProt P08659); test: firefly luciferase enzyme inhibitors, dose response, biochemical, luminescence (AID 1891)
[9] = Luminescence Cell-Based Dose Confirmation HTS to Identify Inhibitors of Platelet Dense Granule Release. [Related pubchem assays: 1663 (Primary HTS), 1678 (Summary of Project)]; assay type: functional
BJ [10] = test: cytotoxicity toward BJ-TERT-LT-ST fibroblasts, dose response, cell-based, RAS-independent, luminescence (AID 1935); assay type: functional; conditions: Homo sapiens;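 also: BJ fibroblasts immortalized with TERT plus LT and ST oncogenes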
[11] = cytotoxicity toward DRD oncogenic fibroblasts, dose response, cell-based, non-viral oncogenic, luminescence (AID 1934); assay type: functional; conditions: Homo sapiens
[12] = inhibitors of SNCA 5'UTR-driven translation, confirmation, luminescence, H4 neuroglioblastoma cells, dose confirmation (AID 2454); assay type: functional, cell-based;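 also: H4 neuroglioblastoma cells carrying an alpha-synuclein 5'UTR luciferase reporter; potency for inhibition of the luciferase signal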
Jurkat = test: antigen receptor-induced NF-kB inhibitors, dose response, Jurkat, luciferase reporter, luminescence, B- and T-cell (AID 489004); assay type: functional, cell-based; conditions: Homo sapiens;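 also: NF-kB luciferase reporter Jurkat cells stimulated with PMA plus ionomycin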
[13] = cytotoxicity in HEK-293T NF-kB-Luc cells, dose response, cytotoxicity control for B/T-cell NF-kB inhibitor project, cell-based, uHTS hits (AID 489019); assay type: functional;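 also: IC50 reflects cytotoxicity as loss of cell viability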
[14] = Shn3 3'UTR reporter inhibitors, dose response, cell-based, Clone20 osteoblasts, firefly luciferase, cherry-picked (AID 624132); assay type: functional;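 also: firefly luciferase luminescence from reporter carrying the Shn3 3'UTR in osteoblasts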
[15] = HepG2 cell cytotoxicity, dose response, cytotoxicity control for Shn3 inhibitor project, CellTiter-Glo, cherry-picked (AID 624134); assay type: functional, cell-based
Paired box protein Pax-8 = Paired box protein Pax-8 (Homo sapiens, UniProt Q06710); test: inhibitors of PAX8-driven TPO luciferase reporter, dose response, RMG-I cells, cherry-pick (AID 687027); assay type: functional, cell-based;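 also: luciferase reporter driven by Pax8 target thyroperoxidase promoter measured by SteadyGlo luminescence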
[16] = non-specific cell cytotoxicity, dose response, cytotoxicity control for PAX8 inhibitor project, plate reader, dry powder samples (AID 743021); assay type: functional, cell-based
[17] = molecular target: T1, Oxysterols receptor LXR-beta (Homo sapiens, UniProt P55055); assay type: functional, cell-based;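 also: Cell-based luminescence dose-response assay of agonist activity at LXR, run as a confirmatory counterscreen to a daf-12 agonist screen; HEK293 cells with Gal4-LXR fusion and GAL4-driven luciferase reporter; agonist potency from rising luciferase signal of a Gal4-LXR reporter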
T1 sequence (P55055 whole entry): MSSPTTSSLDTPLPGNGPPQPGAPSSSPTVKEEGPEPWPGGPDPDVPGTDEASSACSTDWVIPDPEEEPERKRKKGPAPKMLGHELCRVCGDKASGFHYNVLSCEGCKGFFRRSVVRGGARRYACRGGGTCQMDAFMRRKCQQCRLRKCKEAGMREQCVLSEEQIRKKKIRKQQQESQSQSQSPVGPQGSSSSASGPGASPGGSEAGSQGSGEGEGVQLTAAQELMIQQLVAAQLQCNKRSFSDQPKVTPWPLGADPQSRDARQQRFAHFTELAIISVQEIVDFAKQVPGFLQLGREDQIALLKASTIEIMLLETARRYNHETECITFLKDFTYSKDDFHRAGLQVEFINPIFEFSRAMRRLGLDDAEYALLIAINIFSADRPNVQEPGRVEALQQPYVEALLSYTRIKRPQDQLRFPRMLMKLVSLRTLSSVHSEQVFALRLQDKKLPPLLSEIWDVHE

cells [18] = test: cells
[19] = A cytotoxicity screen of small molecule inhibitors of the PhoP region in Salmonella typhi identified in the primary screen. [Related pubchem assays: 1850, 1864, 1985 ]; assay type: functional
[20] = molecular target: T2, Replicative DNA helicase DnaB (Mycobacterium tuberculosis, UniProt P9WMR3); test: DnaB intein splicing inhibitors, dose response, biochemical, cell-free fluorescence (AID 449749); assay type: functional
T2 sequence (P9WMR3 whole entry): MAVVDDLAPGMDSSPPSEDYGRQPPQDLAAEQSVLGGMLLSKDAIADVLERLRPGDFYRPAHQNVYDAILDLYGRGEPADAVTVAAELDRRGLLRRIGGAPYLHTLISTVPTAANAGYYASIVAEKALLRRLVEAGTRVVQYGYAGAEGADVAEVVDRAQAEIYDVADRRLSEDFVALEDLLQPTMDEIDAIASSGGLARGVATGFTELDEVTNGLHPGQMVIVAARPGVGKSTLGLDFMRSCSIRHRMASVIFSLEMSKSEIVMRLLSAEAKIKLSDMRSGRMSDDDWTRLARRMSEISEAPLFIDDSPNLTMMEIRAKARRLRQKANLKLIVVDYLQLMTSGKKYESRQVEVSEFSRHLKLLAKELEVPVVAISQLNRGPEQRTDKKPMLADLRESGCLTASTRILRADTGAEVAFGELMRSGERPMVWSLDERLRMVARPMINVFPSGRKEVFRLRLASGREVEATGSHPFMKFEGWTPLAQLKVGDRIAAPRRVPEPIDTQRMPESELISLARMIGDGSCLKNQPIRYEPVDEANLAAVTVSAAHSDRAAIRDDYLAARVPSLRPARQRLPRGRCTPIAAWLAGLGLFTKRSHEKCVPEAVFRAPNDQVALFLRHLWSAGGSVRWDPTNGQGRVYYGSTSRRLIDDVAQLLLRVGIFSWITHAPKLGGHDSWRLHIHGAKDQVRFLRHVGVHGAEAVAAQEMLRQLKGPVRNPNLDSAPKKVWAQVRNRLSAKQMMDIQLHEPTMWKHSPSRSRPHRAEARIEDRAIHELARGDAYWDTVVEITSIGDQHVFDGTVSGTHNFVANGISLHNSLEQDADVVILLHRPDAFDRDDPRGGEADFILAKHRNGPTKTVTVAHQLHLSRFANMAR

Protein RecA = molecular target: T3, Protein RecA (Mycobacterium tuberculosis, UniProt P9WHJ3); test: Fluorescence Cell-Free Homogeneous Dose Retest to Identify Inhibitors of RecA-Intein Splicing Activity. [Related pubchem assays (depositor defined):AID2097, AID2223, AID489010, AID492950]; assay type: functional
T3 sequence (P9WHJ3 whole entry): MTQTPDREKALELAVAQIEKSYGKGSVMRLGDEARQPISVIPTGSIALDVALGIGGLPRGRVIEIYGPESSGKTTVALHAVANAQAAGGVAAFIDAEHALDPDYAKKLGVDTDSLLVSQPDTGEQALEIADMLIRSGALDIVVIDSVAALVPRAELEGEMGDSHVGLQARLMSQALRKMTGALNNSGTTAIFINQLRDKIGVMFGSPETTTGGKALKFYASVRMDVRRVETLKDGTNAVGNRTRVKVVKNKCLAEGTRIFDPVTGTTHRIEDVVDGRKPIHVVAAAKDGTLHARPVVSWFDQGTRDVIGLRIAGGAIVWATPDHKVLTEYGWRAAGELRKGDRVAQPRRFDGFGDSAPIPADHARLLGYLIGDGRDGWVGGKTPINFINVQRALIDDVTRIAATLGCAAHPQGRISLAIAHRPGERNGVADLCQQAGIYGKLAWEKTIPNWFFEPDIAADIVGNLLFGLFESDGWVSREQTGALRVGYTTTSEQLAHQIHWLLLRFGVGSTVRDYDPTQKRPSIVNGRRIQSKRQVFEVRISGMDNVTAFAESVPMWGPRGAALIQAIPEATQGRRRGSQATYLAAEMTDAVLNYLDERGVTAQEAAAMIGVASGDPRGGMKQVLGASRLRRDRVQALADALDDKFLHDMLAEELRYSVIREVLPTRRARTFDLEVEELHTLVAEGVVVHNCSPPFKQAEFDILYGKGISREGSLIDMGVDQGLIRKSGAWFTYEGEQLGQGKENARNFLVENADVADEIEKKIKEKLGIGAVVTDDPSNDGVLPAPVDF

[21] = molecular target: Peroxisome proliferator-activated receptor gamma/Nuclear receptor coactivator 2 (Homo sapiens, UniProt P37231); assay type: functional;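 also: agonist potency for raising coactivator recruitment to the receptor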
[22] = molecular target: Peroxisome proliferator-activated receptor gamma/Nuclear receptor coactivator 1 (Homo sapiens, UniProt P37231); assay type: functional;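 also: agonist potency as compounds enhance coactivator SRC-1 recruitment to PPARgamma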
[23] = molecular target: Photoreceptor-specific nuclear receptor (Homo sapiens, UniProt Q9Y5X4); assay type: functional;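 also: potency for compounds that break the NR2E3 corepressor complex and count as activators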
[24] = molecular target: Peroxisome proliferator-activated receptor gamma/Nuclear receptor coactivator 3 (Homo sapiens, UniProt P37231); assay type: functional;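 also: agonist potency for raising coactivator recruitment to the receptor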
[25] = molecular target: Peroxisome proliferator-activated receptor gamma/Nuclear receptor corepressor 2 (Homo sapiens, UniProt P37231+Q9Y618); assay type: functional
[26] = molecular target: Acyl-homoserine lactone acylase PvdQ (Pseudomonas aeruginosa (strain LESB58), UniProt Q9I194); test: P. aeruginosa PvdQ acylase inhibitors, dose response, biochemical, fluorescence, plate reader and imaging, cherry-picks (AID 493231)
[27] = M. tuberculosis H37Rv growth inhibitors, H37Rv strain (AID 1626); assay type: functional

Chain of Acyl-homoserine lactone acylase PvdQ (Q9I194 24-193 limits assumed): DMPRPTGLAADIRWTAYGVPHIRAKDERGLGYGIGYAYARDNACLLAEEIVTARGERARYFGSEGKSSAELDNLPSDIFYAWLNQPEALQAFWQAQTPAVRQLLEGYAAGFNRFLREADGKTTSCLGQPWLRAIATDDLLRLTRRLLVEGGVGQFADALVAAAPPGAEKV
Chain of Acyl-homoserine lactone acylase PvdQ (Q9I194 217-762 limits assumed): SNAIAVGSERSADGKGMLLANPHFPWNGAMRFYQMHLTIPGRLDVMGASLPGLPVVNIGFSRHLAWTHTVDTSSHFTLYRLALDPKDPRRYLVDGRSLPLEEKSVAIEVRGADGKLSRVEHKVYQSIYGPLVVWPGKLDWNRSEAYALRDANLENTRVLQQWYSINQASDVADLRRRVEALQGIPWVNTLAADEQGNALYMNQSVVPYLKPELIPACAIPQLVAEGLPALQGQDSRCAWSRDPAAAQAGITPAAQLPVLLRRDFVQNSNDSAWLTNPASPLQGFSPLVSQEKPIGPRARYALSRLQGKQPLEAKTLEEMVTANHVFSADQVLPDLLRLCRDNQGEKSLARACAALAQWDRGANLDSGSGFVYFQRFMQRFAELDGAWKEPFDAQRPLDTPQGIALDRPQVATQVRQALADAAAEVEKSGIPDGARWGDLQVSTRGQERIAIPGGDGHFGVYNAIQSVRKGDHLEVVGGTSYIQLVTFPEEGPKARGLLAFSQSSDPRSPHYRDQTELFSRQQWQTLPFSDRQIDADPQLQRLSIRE
Chain of Peroxisome proliferator-activated receptor gamma/Nuclear receptor coactivator 3 (P37231 whole entry): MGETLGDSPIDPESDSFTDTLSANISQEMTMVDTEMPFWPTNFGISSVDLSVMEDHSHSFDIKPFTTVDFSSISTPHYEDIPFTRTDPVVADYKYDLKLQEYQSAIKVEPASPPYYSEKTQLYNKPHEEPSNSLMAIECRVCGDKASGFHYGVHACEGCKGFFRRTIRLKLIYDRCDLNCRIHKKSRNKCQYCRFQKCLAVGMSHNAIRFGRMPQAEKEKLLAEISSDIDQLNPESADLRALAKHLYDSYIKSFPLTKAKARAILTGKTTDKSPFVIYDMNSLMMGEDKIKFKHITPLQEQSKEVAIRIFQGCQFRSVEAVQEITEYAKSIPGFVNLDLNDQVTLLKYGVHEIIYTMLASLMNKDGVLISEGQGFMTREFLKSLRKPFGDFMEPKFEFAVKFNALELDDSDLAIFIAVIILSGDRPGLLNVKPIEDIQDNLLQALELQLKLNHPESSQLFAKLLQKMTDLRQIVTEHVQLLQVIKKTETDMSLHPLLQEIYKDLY
Chain of Peroxisome proliferator-activated receptor gamma/Nuclear receptor coactivator 3 (Q9Y6Q9 whole entry, further chain): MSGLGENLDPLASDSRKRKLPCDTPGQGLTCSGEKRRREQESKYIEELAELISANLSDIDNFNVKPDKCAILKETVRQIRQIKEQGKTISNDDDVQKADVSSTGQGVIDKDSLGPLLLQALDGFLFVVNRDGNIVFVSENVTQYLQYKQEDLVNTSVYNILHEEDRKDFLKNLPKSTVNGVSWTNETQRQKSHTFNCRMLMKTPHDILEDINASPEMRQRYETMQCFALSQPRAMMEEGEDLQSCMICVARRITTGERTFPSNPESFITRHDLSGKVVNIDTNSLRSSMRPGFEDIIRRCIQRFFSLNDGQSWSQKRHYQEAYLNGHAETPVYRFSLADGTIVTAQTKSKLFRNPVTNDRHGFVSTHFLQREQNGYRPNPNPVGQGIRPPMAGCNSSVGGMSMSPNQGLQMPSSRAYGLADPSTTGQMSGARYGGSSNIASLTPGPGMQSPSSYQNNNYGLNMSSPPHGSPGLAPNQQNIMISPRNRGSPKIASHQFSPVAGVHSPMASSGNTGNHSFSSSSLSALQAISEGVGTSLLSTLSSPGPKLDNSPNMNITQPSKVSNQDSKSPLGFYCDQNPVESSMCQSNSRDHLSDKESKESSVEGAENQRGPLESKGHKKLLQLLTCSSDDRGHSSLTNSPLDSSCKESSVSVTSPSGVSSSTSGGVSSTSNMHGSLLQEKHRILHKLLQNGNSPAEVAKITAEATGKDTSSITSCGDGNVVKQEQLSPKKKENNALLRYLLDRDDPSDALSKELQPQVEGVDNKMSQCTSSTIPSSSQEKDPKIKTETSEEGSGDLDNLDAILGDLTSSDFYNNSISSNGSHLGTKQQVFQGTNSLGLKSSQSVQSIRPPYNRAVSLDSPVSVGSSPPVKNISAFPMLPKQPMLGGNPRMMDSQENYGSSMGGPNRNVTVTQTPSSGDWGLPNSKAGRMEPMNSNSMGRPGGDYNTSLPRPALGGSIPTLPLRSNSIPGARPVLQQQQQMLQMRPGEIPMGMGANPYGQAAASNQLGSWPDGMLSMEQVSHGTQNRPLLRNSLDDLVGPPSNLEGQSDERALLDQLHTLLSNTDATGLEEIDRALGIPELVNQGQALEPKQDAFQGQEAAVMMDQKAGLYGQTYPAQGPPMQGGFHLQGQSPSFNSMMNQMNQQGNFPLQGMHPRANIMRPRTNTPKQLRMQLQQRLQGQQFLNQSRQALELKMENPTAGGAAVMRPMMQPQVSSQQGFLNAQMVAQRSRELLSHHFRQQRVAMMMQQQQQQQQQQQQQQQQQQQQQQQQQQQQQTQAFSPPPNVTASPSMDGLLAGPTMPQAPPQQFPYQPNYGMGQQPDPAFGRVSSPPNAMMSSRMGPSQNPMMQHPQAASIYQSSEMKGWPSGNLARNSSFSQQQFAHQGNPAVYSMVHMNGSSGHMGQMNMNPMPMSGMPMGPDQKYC
Chain of Peroxisome proliferator-activated receptor gamma/Nuclear receptor coactivator 2 (P37231 whole entry): as the sequence (P37231 whole entry) above
Chain of Peroxisome proliferator-activated receptor gamma/Nuclear receptor coactivator 2 (Q15596 whole entry, further chain): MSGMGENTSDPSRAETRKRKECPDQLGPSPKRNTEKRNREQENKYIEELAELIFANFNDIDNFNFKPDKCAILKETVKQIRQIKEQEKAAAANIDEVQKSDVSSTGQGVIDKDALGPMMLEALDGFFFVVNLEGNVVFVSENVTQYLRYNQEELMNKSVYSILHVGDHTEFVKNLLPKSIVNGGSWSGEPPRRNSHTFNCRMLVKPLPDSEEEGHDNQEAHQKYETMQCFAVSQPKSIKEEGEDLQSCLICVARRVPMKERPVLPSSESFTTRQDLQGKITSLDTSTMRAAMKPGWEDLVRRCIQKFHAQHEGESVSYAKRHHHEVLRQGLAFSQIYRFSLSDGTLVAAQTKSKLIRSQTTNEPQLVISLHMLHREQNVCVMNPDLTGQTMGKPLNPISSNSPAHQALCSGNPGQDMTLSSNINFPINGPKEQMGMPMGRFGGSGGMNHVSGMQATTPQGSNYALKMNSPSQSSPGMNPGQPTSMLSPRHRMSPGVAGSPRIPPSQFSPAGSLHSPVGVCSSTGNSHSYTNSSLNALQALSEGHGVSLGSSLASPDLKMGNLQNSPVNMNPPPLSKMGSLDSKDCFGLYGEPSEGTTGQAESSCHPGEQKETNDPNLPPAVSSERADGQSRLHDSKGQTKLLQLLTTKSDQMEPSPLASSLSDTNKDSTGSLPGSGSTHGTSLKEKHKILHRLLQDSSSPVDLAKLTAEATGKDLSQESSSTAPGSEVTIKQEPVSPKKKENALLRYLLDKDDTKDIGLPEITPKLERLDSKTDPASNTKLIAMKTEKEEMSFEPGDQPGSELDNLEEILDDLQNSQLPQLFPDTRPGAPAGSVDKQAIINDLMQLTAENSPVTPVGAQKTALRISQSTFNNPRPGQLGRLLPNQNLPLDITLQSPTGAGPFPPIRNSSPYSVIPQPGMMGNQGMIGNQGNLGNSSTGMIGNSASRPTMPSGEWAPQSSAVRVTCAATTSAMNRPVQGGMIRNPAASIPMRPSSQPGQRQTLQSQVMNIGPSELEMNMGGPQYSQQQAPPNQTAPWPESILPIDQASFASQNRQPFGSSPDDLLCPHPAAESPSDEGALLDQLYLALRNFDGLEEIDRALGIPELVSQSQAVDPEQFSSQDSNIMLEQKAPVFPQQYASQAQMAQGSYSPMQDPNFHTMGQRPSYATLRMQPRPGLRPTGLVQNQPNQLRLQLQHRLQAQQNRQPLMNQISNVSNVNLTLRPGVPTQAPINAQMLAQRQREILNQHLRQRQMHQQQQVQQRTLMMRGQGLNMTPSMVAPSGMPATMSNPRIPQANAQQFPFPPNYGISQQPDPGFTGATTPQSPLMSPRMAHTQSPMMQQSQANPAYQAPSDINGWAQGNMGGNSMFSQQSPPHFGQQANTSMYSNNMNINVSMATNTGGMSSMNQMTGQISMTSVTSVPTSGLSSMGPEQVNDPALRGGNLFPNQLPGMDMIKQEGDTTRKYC
Chain of Paired box protein Pax-8 (Q06710 whole entry): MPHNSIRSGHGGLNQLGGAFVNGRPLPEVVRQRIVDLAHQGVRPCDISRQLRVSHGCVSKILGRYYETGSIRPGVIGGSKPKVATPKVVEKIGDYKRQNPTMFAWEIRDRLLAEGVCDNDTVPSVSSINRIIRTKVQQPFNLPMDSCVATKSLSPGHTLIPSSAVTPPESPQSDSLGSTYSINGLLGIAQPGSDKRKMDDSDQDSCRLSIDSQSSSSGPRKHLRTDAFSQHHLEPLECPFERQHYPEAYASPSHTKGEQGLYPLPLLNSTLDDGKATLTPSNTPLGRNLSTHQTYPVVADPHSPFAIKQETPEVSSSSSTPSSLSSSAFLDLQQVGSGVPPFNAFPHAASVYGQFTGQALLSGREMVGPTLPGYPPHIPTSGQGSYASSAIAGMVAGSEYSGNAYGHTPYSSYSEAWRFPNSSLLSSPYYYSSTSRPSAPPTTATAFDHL

O=C(Nc1ccc([N+](=O)[O-])cc1)C(=O)Nc1cccc(C(=O)O)c1
EC50 [1]: < 0.1 µM (active)
EC50 [2]: 0.126 µM (active)
EC50 (BJ [3]): 16.2 µM (active)
EC50 (cells [4]): > 12 µM (inconclusive)
EC50 [5]: < 0.1 µM (active)
EC50 [6]: < 0.1 µM (active)
EC50 (BJ [7]): 7.23 µM (active)
EC50 [8]: 0.984 µM (active)
EC50 [9]: 2.09 µM (active)
EC50 (BJ [10]): > 75 µM (inconclusive)
EC50 [11]: 8.07 µM (active)
EC50 [12]: 0.115 µM (active)
IC50 (Jurkat): 1.57 µM (active)
IC50 [13]: > 80 µM (inactive)
AC50 [14]: 4.21 µM (active)
AC50 [15]: 56.2 µM (active)
AC50 (Paired box protein Pax-8): 5 µM (active)
AC50 [16]: 5.98 µM (active)
EC50 [17]: > 67.5 µM (inactive)
EC50 (cells [18]): > 67.5 µM (inactive)

COc1ccc(C2C(C#N)=C(N)Oc3[nH]nc(C)c32)cc1CSc1ccccn1 (configuration not stated)
EC50 [19]: > 50 µM (active)
AC50 [20]: 9.71 µM (active)
EC50 (Protein RecA): 6.32 µM (active)

CCc1cc2cc3c(cc2nc1SCC(=O)Nc1cc(C)on1)OCO3
EC50 [21]: > 79.4 µM (not active)
EC50 [22]: > 79.4 µM (not active)
IC50 [23]: > 39.8 µM (not active)
EC50 [24]: > 79.4 µM (not active)
IC50 [25]: 1.54 µM (active)

O=[N+]([O-])c1ccc(N2CCCCC2)cc1
AC50 [26]: 6.52 µM (active)

CC(C)Cc1c(O)nc(SCC(=O)Nc2ccc3c(c2)CCC3)nc1O
EC50 [19]: > 50 µM (active)
IC50 [27]: > 100 µM (active)

O=C1C2C(C(=O)N1Cc1ccco1)C1C=CC2C12CC2 (configuration not stated)
AC50 [26]: 2.42 µM (active)

From ChEMBL document CHEMBL1201862, “PubChem BioAssay data set” (2004)
